From PubChem BioAssay AID1918998 (Molecular Pharmacology Branch, DTP, NCI, 2023)

Test system: 521955-158-R2-J5-PDC complex spheroid growth
Test: Anticancer human tumor 521955-158-R2-J5-PDC patient-derived pancreatic carcinoma cell line growth inhibition [AhR]
Details: for IC50: curve of first compound; for viability, T/C: stronger effect = lower value; active = viability on the fitted dose curve at most 10% of control; inactive = the rest
Outline: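 Spheroids combined tumor cells with HUVEC endothelial cells and human MSCs as stroma. AhR antagonists were paired with standard or investigational drugs, each dosed in half-log steps down from near clinical Cmax, or from 10 microM where Cmax was unknown.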
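For viability, T/C in this document: spheroids mix tumor cells with HUVEC endothelium and human MSC stroma; luminescence taken as viability surrogate after a week of drug exposure.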

CC1(C)CCC(CN2CCN(c3ccc(C(=O)NS(=O)(=O)c4ccc(NCC5CCOCC5)c([N+](=O)[O-])c4)c(Oc4cnc5[nH]ccc5c4)c3)CC2)=C(c2ccc(Cl)cc2)C1 + CC(CO)NC(=O)c1cc(-c2ccc(Cl)cc2)nn(-c2cnn(C)c2)c1=O
inactive: viability, T/C (second compound 0.1 µM, first compound 0.0316 µM) 103% | viability, T/C (second compound 0.1 µM, first compound 0.1 µM) 125% | viability, T/C (second compound 0.1 µM, first compound 0.316 µM) 92.1% | viability, T/C (second compound 0.1 µM, first compound 1 µM) 92.7% | viability, T/C (second compound 0.1 µM, first compound 3.16 µM) 98% | viability, T/C (second compound 0.1 µM, first compound 10 µM) 67.3% | viability, T/C (second compound 0.316 µM, first compound 0.0316 µM) 115% | viability, T/C (second compound 0.316 µM, first compound 0.1 µM) 111% | viability, T/C (second compound 0.316 µM, first compound 0.316 µM) 124% | viability, T/C (second compound 0.316 µM, first compound 1 µM) 100% | viability, T/C (second compound 0.316 µM, first compound 3.16 µM) 111% | viability, T/C (second compound 0.316 µM, first compound 10 µM) 67.7% | viability, T/C (second compound 1 µM, first compound 0.0316 µM) 93.1% | viability, T/C (second compound 1 µM, first compound 0.1 µM) 105% | viability, T/C (second compound 1 µM, first compound 0.316 µM) 122% | viability, T/C (second compound 1 µM, first compound 1 µM) 138% | viability, T/C (second compound 1 µM, first compound 3.16 µM) 124% | viability, T/C (second compound 1 µM, first compound 10 µM) 56% | viability, T/C (second compound 3.16 µM, first compound 0.0316 µM) 123% | viability, T/C (second compound 3.16 µM, first compound 0.1 µM) 99.1% | viability, T/C (second compound 3.16 µM, first compound 0.316 µM) 113% | viability, T/C (second compound 3.16 µM, first compound 1 µM) 113% | viability, T/C (second compound 3.16 µM, first compound 3.16 µM) 108% | viability, T/C (second compound 3.16 µM, first compound 10 µM) 61.9% | viability, T/C (second compound 10 µM, first compound 0.0316 µM) 90.2% | viability, T/C (second compound 10 µM, first compound 0.1 µM) 120% | viability, T/C (second compound 10 µM, first compound 0.316 µM) 109% | viability, T/C (second compound 10 µM, first compound 1 µM) 92.8% | viability, T/C (second compound 10 µM, first compound 3.16 µM) 95.1% | viability, T/C (second compound 10 µM, first compound 10 µM) 63.7%
> 10 µM: IC50 (second compound 0.1 µM) | IC50 (second compound 0.316 µM) | IC50 (second compound 1 µM) | IC50 (second compound 3.16 µM) | IC50 (second compound 10 µM)

CCN(c1cc(-c2ccc(CN3CCOCC3)cc2)cc(C(=O)NCc2c(C)cc(C)[nH]c2=O)c1C)C1CCOCC1 + CC(CO)NC(=O)c1cc(-c2ccc(Cl)cc2)nn(-c2cnn(C)c2)c1=O
> 3 µM: IC50 (second compound 0.1 µM) | IC50 (second compound 0.316 µM) | IC50 (second compound 1 µM) | IC50 (second compound 3.16 µM) | IC50 (second compound 10 µM)
inactive: viability, T/C (second compound 0.1 µM, first compound 0.00949 µM) 121% | viability, T/C (second compound 0.1 µM, first compound 0.03 µM) 110% | viability, T/C (second compound 0.1 µM, first compound 0.0949 µM) 102% | viability, T/C (second compound 0.1 µM, first compound 0.3 µM) 80.8% | viability, T/C (second compound 0.1 µM, first compound 0.949 µM) 81.1% | viability, T/C (second compound 0.1 µM, first compound 3 µM) 102% | viability, T/C (second compound 0.316 µM, first compound 0.00949 µM) 103% | viability, T/C (second compound 0.316 µM, first compound 0.03 µM) 103% | viability, T/C (second compound 0.316 µM, first compound 0.0949 µM) 97.4% | viability, T/C (second compound 0.316 µM, first compound 0.3 µM) 101% | viability, T/C (second compound 0.316 µM, first compound 0.949 µM) 87.6% | viability, T/C (second compound 0.316 µM, first compound 3 µM) 86.5% | viability, T/C (second compound 1 µM, first compound 0.00949 µM) 105% | viability, T/C (second compound 1 µM, first compound 0.03 µM) 93.7% | viability, T/C (second compound 1 µM, first compound 0.0949 µM) 129% | viability, T/C (second compound 1 µM, first compound 0.3 µM) 94.5% | viability, T/C (second compound 1 µM, first compound 0.949 µM) 72.5% | viability, T/C (second compound 1 µM, first compound 3 µM) 82.6% | viability, T/C (second compound 3.16 µM, first compound 0.00949 µM) 90.6% | viability, T/C (second compound 3.16 µM, first compound 0.03 µM) 79.3% | viability, T/C (second compound 3.16 µM, first compound 0.0949 µM) 99.1% | viability, T/C (second compound 3.16 µM, first compound 0.3 µM) 86.7% | viability, T/C (second compound 3.16 µM, first compound 0.949 µM) 74% | viability, T/C (second compound 3.16 µM, first compound 3 µM) 91% | viability, T/C (second compound 10 µM, first compound 0.00949 µM) 91% | viability, T/C (second compound 10 µM, first compound 0.03 µM) 96.8% | viability, T/C (second compound 10 µM, first compound 0.0949 µM) 84.9% | viability, T/C (second compound 10 µM, first compound 0.3 µM) 77.4% | viability, T/C (second compound 10 µM, first compound 0.949 µM) 74.4% | viability, T/C (second compound 10 µM, first compound 3 µM) 60.7%
